Here are results for 1 compound from patent US20250197428A1, “INHIBITORS OF KIF18A AND USES THEREOF” (ACCENT THERAPEUTICS, INC., priority 2022, published 2025).

The target in data set [1] is KIF18A (Homo sapiens (Human), UniProt Q8NI77). Briefly: KIF18A Biochemical Assay (ATPase, ADP-Glo).
The test system of data set [2] is OVCAR-3 cells. In words: In vitro anti-proliferative activity assay in cancer cell line OVCAR-3 (CellTiter-Glo, 4- or 7-day). It is filed as cell-based. Particulars: 7-day assay; read-out: OVCAR-3 cellular antiproliferation assay IC50.
The test system of data set [3] is Caco-2 cell monolayers. Briefly: Caco-2 permeation assay, bidirectional permeability. It is filed as in vitro ADME. Particulars: 5 μM, 2 h, Papp(B-A)/Papp(A-B). The method in brief:
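Bidirectional A→B and B→A transport of 5 μM compound in HBSS (10 mM HEPES, pH 7.4), receiver containing 2% BSA, 2 h at 37 °C on 14-day monolayers. Papp from LC-MS/MS peak areas; efflux ratio Papp(B-A)/Papp(A-B), plus recovery. Lucifer Yellow leakage <1% required for monolayer acceptance.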

Sequence of KIF18A (Q8NI77 1-367): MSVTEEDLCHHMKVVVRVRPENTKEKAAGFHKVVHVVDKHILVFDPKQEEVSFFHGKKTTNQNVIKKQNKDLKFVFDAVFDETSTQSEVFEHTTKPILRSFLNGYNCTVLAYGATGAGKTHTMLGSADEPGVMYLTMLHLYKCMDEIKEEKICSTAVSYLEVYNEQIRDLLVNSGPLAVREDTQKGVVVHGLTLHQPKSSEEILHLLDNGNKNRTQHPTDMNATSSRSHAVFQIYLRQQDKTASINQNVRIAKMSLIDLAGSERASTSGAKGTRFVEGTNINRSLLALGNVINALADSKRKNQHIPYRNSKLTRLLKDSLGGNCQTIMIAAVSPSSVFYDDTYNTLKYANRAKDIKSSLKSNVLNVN
Sequence of KIF18A (P02550 whole entry partner): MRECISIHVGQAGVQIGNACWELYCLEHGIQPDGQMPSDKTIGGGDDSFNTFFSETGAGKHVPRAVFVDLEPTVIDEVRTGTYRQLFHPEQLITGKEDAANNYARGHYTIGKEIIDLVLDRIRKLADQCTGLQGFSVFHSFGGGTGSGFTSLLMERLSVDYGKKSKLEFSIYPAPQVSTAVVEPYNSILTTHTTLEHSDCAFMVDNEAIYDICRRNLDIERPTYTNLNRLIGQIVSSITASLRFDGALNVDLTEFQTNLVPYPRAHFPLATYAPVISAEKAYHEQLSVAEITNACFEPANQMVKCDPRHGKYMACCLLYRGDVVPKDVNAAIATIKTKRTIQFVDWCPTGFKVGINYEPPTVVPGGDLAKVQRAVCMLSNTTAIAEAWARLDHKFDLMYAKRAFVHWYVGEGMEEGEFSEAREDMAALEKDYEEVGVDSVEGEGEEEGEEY
Sequence of KIF18A (P02554 whole entry partner): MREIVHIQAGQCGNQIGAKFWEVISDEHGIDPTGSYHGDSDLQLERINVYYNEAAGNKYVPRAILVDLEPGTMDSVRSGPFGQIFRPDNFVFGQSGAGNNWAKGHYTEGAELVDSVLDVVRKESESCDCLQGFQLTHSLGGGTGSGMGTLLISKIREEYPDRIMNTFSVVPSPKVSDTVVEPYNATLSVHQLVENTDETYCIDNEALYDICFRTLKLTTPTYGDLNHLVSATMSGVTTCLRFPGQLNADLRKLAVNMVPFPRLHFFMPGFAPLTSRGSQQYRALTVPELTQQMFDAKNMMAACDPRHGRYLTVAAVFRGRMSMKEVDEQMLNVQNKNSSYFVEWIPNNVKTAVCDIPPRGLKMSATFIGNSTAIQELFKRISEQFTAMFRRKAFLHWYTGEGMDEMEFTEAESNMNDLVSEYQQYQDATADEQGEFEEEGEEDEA

For the compound `Cc1cc(NC(=O)c2ccc(NS(=O)(=O)CCO)cc2N2CC[C@]3(C(F)F)C[C@@H]3C2)nc(N2CCC(F)(F)CC2)n1` [Example 86], the IC50 in data set [1] is less than 100 nM; in data set [2] it was 100 to 500 nM. Moreover, the “Caco-2 assay efflux ratio” value in data set [3] is given as “** (“**” means efflux ratio of <10)”.
